No end group written: not given here.
Assay: Overall hydrophobicity from UPLC traces
Assay type: physicochemical
Conditions: Supporting Information Figure S1

Substance	overall hydrophobicity compared to wild-type kB1
TRGFEWLDWEFGLPV (also: bicyclic or more (positions not given here)) [[graft1, 16]kB1]	increased overall hydrophobicity
TRWGLPV (also: bicyclic or more (positions not given here)) [[W^mut, 16]kB1]	increased overall hydrophobicity

From publication PMC7831380 (ACS chemical biology, 2020)
